Measurements: patent US11840686B2, “Modulation of prekallikrein (PKK) expression” (Ionis Pharmaceuticals, Inc., priority 2013, dated 2023)
pIC50: −log10 of the molar value. Strand notation (5' to 3'): a small letter for the sugar, then the base; units joined by * are phosphorothioate-linked, units joined directly phosphodiester-linked; [ ] holds rarer units or linkages, { } end groups; capitals alone tell only the bases. e = 2'-O-(2-methoxyethyl) (MOE); k = constrained ethyl (cEt); [5mC] = 5-methylcytosine; d = 2'-deoxy (DNA)

Tests used:
[1] = test system: human PKK mRNA; test: Antisense inhibition of human PKK mRNA in HepaRG cells, 1,000 nM, MOE/deoxy/cEt oligonucleotides (Example 3); assay type: cell-based
Summary of the method: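 HepaRG cells at 20,000 per well electroporated with 1,000 nM 16-mer MOE/cEt/deoxy gapmers (phosphorothioate, 5-methylcytosine). After about 24 h, PKK mRNA measured by qRT-PCR with primer probe set RTS3454, normalized to RIBOGREEN total RNA. Reported as percent inhibition versus untreated cells.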

[2] = test system: human PKK mRNA; test: Dose-dependent antisense inhibition of human PKK in HepaRG cells, 0.11-3.00 uM (Example 6); assay type: cell-based; conditions: for pIC50: 0.11-3.00 μM; for percent inhibition of PKK mRNA, 0.11 μM / percent inhibition of PKK mRNA, 0.33 μM / percent inhibition of PKK mRNA, 1.00 μM / percent inhibition of PKK mRNA, 3.00 μM: electroporation, approx. 16 hours, relative to untreated control cells
Method: Cells were plated at a density of 20,000 cells per well and transfected using electroporation with 0.11 μM, 0.33 μM, 1.00 μM, and 3.00 μM concentrations of antisense oligonucleotide. After a treatment period of approximately 16 hours, RNA was isolated from the cells and PKK mRNA levels were measured by quantitative real-time PCR. Human PKK primer probe set RTS3454 was used to measure mRNA levels. PKK mRNA levels were adjusted according to total RNA content, as measured by RIBOGREEN®. The antisense oligonucleotides were tested in a series of experiments that had similar culture conditions.
The half maximal inhibitory concentration (IC50) of each oligonucleotide is also presented.

[3] = Table 20, HepaRG cells, electroporation with 1,000 nM antisense oligonucleotide, approximately 24 hours, PKK mRNA by RT-PCR (RTS3454), relative to untreated control cells
[4] = Table 22 experiment, HepaRG cells, electroporation with 1,000 nM antisense oligonucleotide, approx. 24 hours, PKK mRNA by RT-PCR (RTS3454), relative to untreated control cells
[5] = HepaRG cells, electroporation with 1,000 nM antisense oligonucleotide, approx. 24 hours, PKK mRNA by RT-PCR (RTS3454), relative to untreated control cells, Table 25 experiment

Substance	% inhibition ([1]; PKK mRNA, HepaRG cells, 1,000 nM antisense oligonucleotide, Table 31)	pIC50 [2]	percent inhibition of PKK mRNA, 0.11 μM [2]	percent inhibition of PKK mRNA, 0.33 μM [2]	percent inhibition of PKK mRNA, 1.00 μM [2]	percent inhibition of PKK mRNA, 3.00 μM [2]	% inhibition [1, 3]	% inhibition [1, 4]	% inhibition ([1]; Table 19, HepaRG cells, electroporation with 1,000 nM antisense oligonucleotide, approximately 24 hours, PKK mRNA by RT-PCR (RTS3454), relative to untreated control cells)	% inhibition [1, 5]	% inhibition ([1]; HepaRG cells, electroporation with 1,000 nM antisense oligonucleotide, approx. 24 hours, PKK mRNA by RT-PCR (RTS3454), relative to untreated control cells, Table 26 experiment)	% inhibition ([1]; Table 28, HepaRG cells, 1,000 nM antisense oligonucleotide, human PKK mRNA)
548655 (antisense e[5mC]*e[5mC]*k[5mC]*dG*dA*dG*dG*dT*d[5mC]*dA*d[5mC]*dA*dT*kA*kA*eT) [compound 548655]	56%	< 5.52	0%	0%	8%	33%						
547877 (antisense eA*eA*k[5mC]*dA*d[5mC]*dT*dG*d[5mC]*dT*dA*dA*d[5mC]*d[5mC]*kT*kT*eA) [compound 547877]		6.70	29%	66%	83%		81%	93%				
548125 (antisense e[5mC]*eT*kA*dG*dA*d[5mC]*dT*d[5mC]*dT*dG*dG*dA*d[5mC]*kT*kG*e[5mC]) [compound 548125]		6.52	33%	50%	81%	73%			89%			
548201 (eT*eG*kT*dT*d[5mC]*dT*dA*dA*dT*dG*dT*dG*dG*k[5mC]*kA*e[5mC]; antisense) [compound 548201]		6.10	0%	7%	70%	85%				67%		
547851 (antisense eT*eA*kA*dA*dT*dG*dT*d[5mC]*dT*d[5mC]*dG*dA*dT*kG*kG*e[5mC]) [compound 547851]		6.40	16%	46%	83%		93%	84%				
548174 (eT*e[5mC]*kT*d[5mC]*dA*dG*dT*dT*dG*d[5mC]*dG*dA*d[5mC]*k[5mC]*kT*e[5mC]; antisense) [compound 548174]		5.70	20%	18%	29%	62%				68%		
548278 (antisense eG*eG*kT*dT*d[5mC]*d[5mC]*d[5mC]*dT*dA*dG*d[5mC]*dG*dG*kT*k[5mC]*e[5mC]) [compound 548278]		6.40	3%	59%	78%	93%					74%	
548486 (e[5mC]*eG*kT*dG*dG*dT*dT*dA*dG*d[5mC]*d[5mC]*dT*dG*kA*k[5mC]*eA; antisense) [compound 548486]		6.40	20%	48%	77%	92%						68%
